Laboratory results: patent publication US20110206638A1, “COMPOSITIONS AND METHODS FOR REDUCING THE MUTATION RATE OF VIRUSES” (priority 2010, published 2011)
Entries after “also recorded” stand apart in the source; their conditions may differ.

Experiments:
[1] = tested on: Con1 replicon cells; test: 8-OHG oxidative RNA damage in SgPC2 Con1 replicon cells (ELISA); type: cell-based, human; conditions: for level of 8-OHG in ethanol and BSO-treated replicon cells with inhibitor: 0.5% ethanol or 20 μM BSO daily for 48 hr, 10 μM dipyridyl, 2 mM GSH ester, 5 μM PIH, 0.1 mM DETAPAC, 1 mM L-NMA, DPI, 25 μM DADS
Method: Total RNA was isolated using Trizol (Invitrogen) and analyzed for 8-OH-guanosine (8-OH-G) by northwestern, as described (Shan X et al. (2003) J. Neurosci. 23:4913-4921). Briefly, RNA was size-fractionated by agarose gel electrophoresis, transferred to a nylon membrane, blocked with 1% BSA, incubated sequentially with monoclonal anti-8-OH-G/dG antibodies (QED Bioscience, Inc.) and then with goat anti-mouse HRP-conjugated secondary antibody (Santa Cruz Biotechnology), and signals were detected, using an ECL kit (Amersham). In addition, RNA was digested with nuclease P1 (Sigma, US Biological) and alkaline phosphatase (Promega) and analyzed for 8-OH-G content using RNA Damage Kit (Cell Biolabs, Inc.), following manufacturer's protocols.
Total RNA was isolated using Trizol (Invitrogen) and analyzed for 8-OHG by ELISA. Briefly, RNA was incubated with 10 U DNase I (GE Healthcare), 10 U nuclease P1 (Sigma or US Biological), and 10 U alkaline phosphatase (Promega) and analyzed for 8-OHG content with RNA Damage Kit (Cell Biolabs, Inc.) and 8-OHG standards, following manufacturer's protocols.

[2] = tested on: subgenomic HCV replicon of genotype 1b (Con1S1179I), NS5A region; test: NS5A sequencing of HCV RNA, nucleotide and amino acid substitution rates in Con1 replicon cells (Example 2); type: cell-based, Hepatitis C virus; conditions: for Nt. change per site: Con1 replicon cells, once daily for 48 hrs, T7 baseline subtracted, ethanol 0.5% v/v, BSO 20 μM, H2O2 100 μM, acetaldehyde 10 μM; for Fold increase (Amino acid change per site): over control, 48 hrs; for amino acid substitution rate in the BSO group with co-treatment: 20 μM BSO daily for 48 hr; for amino acid substitution rate in the BSO group with co-treatment / amino acid substitution rate in the ethanol group with co-treatment / nt. substitution rates of ethanol and BSO groups with co-treatment / dn/ds ratio in the BSO group with co-treatment: 10 μM dipyridyl or 2 mM GSH ester; for amino acid substitution rate in the ethanol group with co-treatment: 0.5% ethanol daily for 48 hr; for nt. substitution rates of ethanol and BSO groups with co-treatment: 0.5% ethanol or 20 μM BSO daily for 48 hr; for percentage of sites undergoing positive selection with co-treatment: FIG. 8A; for dn/ds ratio of the control group with co-treatment: from 0.31 without inhibitor; for dn/ds ratio in the BSO group with co-treatment: from 0.72 without inhibitor, 48 hr
Method: Huh7 cell clones (SgPC2 cells) supporting continuous replication of a subgenomic HCV replicon of genotype 1b (Con1S1179I sequence) were used (Choi J. et al. (2004) Hepatology 39:81-89; Blight K J et al. (2000) Science 290:1972). Subgenomic replicons support the HCV RNA genome replication by the viral replicase but no virus is formed. The in vitro transcription, transfection of the viral RNA, and Huh7 human hepatoma cell culture were performed as described (Choi J. et al. (2004) Hepatology 39:81-89; Blight K J et al. (2000) Science 290:1972). All biochemicals including ethanol (molecular biology grade), acetaldehyde, BSO, H2O2, dipyridal, and GSH ethyl ester were obtained from SigmaAldrich except PIH, which was synthesized according to published methods (Kicic A et al., (2001) Cancer 92: 3093-3110; Ponka P. et al., (1979) FEBS Lett 97: 317-321).
Total RNAs were collected using Trizol (Invitrogen). Then, the NS5A region (nt. 4612 to 6013 of Con1 replicon) was reverse transcribed/amplified with AccuScript High Fidelity RT-PCR System (Agilent). The reverse primer used for reverse transcription and PCR amplification was 5′-[…]-3′ (SEQ ID NO: 1), and the forward primer was 5′-[…]-3′ (SEQ ID NO: 2). The XbaI and HindIII restriction enzyme sites are underlined. The cDNA products were cloned into pUC19 via HindIII and XbaI sites and sequenced at the Joint Genome Institute (Livermore, Calif.) and University of California Berkeley Sequencing (Berkeley, Calif.). Sequences were aligned against Con1(S1179I) sequence, using BioEdit/MEGA 4.0 Molecular Evolutionary Genetics Analysis software. Cumulative synonymous and nonsynonymous mutations were computed using Synonymous Nonsynonomous Analysis Program (SNAP; www.hcv.lanl.gov). The […] ratio was calculated using SNAP. Amino acid substitution trends were analyzed by position with MutationCounter, a mutation counting program, developed for this project. The sequences were compared with 1,212 genotype 1b NS5A sequences pooled from the Lawrence Livermore HCV sequence database (www.hcv.lanl.gov) which included sequences from the European, Asian, and Russian databases. Sequences harboring gaps, undetermined nucleotides, or incomplete NS5A sequences were removed prior to the analysis.
To test whether ethanol can affect the HCV RNA sequence, Con1 replicon cells that support genotype 1b subgenomic HCV RNA replication were incubated with ethanol (0.5% v/v), BSO (20 μM), H2O2 (100 μM), or acetaldehyde (10 μM) once daily for 48 hrs with a change of the cell culture medium at the time of each treatment. Acetaldehyde and H2O2 are generated during hepatic metabolism of ethanol. BSO, by inhibiting GSH biosynthesis, mimics GSH depletion seen in hepatitis C patients. GSH participates in detoxification reactions that remove reactive species such as H2O2 and acetaldehyde. Thus, by decreasing GSH, BSO also amplifies the effects of endogenous ROS and RNS, allowing one to test the effects of endogenous ROS/RNS. Then, the RNA was collected, and the NS5A region corresponding to nt. 4612 to 6013 of Con1 replicon was reverse transcribed using AccuScript reverse transcriptase and amplified with PfuUltra (Agilent). PfuUltra is a high fidelity DNA polymerase with an error rate of 4.3×10^−9; AccuScript reverse transcriptase has an error rate of 1.61×10^−7. Then, the cDNA products were cloned into pUC19 and sequenced by the Sanger method.

[3] = tested on: subgenomic HCV replicon of genotype 1b (Con1), NS5A region; test: NS5A sequencing of HCV RNA, mutation frequency in SgPC2 Con1 replicon cells (Example 1); type: cell-based, Hepatitis C virus; conditions: H2O2 100 μM, acetaldehyde 10 μM, once daily for 48 hrs
Method: Huh7 cell clones (SgPC2 cells) supporting continuous replication of a subgenomic HCV replicon of genotype 1b (Con1 sequence) were used (Choi J. et al. (2004) Hepatology 39:81-89; Blight K J et al. (2000) Science 290:1972). The subgenomic replicons support HCV RNA replication but no virus is formed. The in vitro transcription, transfection of HCV RNA, and Huh7 human hepatoma cell culture were performed by methods known in the art and as previously described (Choi J. et al. (2004) Hepatology 39:81-89; Blight K J et al. (2000) Science 290:1972).
After various treatments, total RNAs were collected using Trizol (Invitrogen). Then, the NS5A region (nt. 4612 to 6013 of Con1 replicon) was reverse transcribed/amplified with AccuScript High Fidelity RT-PCR System (Stratagene). The cDNAs were cloned into pUC19 and sequenced at the Joint Genome Institute (Livermore, Calif.). Sequences were aligned against Con1(S11791) sequence, using BioEdit/MEGA 4.0 Molecular Evolutionary Genetics Analysis software.
To test whether ethanol can increase the mutation rate of HCV, SgPC2 Con1 replicon cells that support genotype 1b subgenomic HCV RNA replication (FIG. 2B) were incubated with ethanol (0.5%), BSO (amplifies the effects of endogenous ROS/RNS by decreasing the level of glutathione in the cell), H2O2 (100 μM), or acetaldehyde (10 μM) once daily for 48 hrs. Then, the RNAs were collected, and the NS5A region (nt. 4612 to 6013 of Con1 replicon) was reverse transcribed/amplified with AccuScript High Fidelity RT-PCR System (Stratagene). Then, the cDNAs were cloned into pUC19 and sequenced at the Joint Genome Institute (Livermore, Calif.). T7 HCV RNA transcript, initially used to transfect the Con1 cells, was also sequenced to assess the basal level of RNA heterogeneity, such as due to any heterogeneity of the DNA template prior to in vitro transcription as well as any errors generated during transcription and RT-PCR cloning. The experiments were focused on NS5A because of its moderate level of diversity and its role in viral replication as well as interferon resistance. Sequences were aligned against Con1(S1179I) sequence, using BioEdit/MEGA 4.0 Molecular Evolutionary Genetics Analysis software.

## C=CCSSCC=C [DADS, diallyl disulfide]
[1]
  level of 8-OHG in ethanol and BSO-treated replicon cells with inhibitor: reduce; also recorded: decreased

## Cc1ncc(CO)c(C=NNC(=O)c2ccncc2)c1O [PIH, pyridoxal isonicotinoyl hydrazone]
[1]
  level of 8-OHG in ethanol and BSO-treated replicon cells with inhibitor: decreased
[1]; listed as pyridoxal isonicotinoyl hydrazone
  level of 8-OHG in ethanol and BSO-treated replicon cells with inhibitor: significantly decreased

## CC(=O)O.CNC(=N)NCCC[C@H](N)C(=O)O [L-NMA, N^G-methyl-L-arginine acetate]
[1]
  level of 8-OHG in ethanol and BSO-treated replicon cells with inhibitor: reduce; also recorded: decreased

## O=C(O)CN(CCN(CC(=O)O)CC(=O)O)CCN(CC(=O)O)CC(=O)O [DETAPAC, 1,1,4,7,7-diethylenetriaminepentaacetic acid]
[1]
  level of 8-OHG in ethanol and BSO-treated replicon cells with inhibitor: decreased
[1]; DETAPAC 0.1 mM
  decrease of 8-OHG levels in BSO-treated SgPC2 cells: 19.7±0.2%
  decrease of 8-OHG levels in control SgPC2 cells: 28.0±0.3%
  decrease of 8-OHG levels in ethanol-treated SgPC2 cells: 13.8±0.3%

## c1ccc2c(c1)[I+]c1ccccc1-2 [DPI, diphenylene iodonium]
[1]
  level of 8-OHG in ethanol and BSO-treated replicon cells with inhibitor: reduce; also recorded: decreased

## CC=O [acetaldehyde]
[1]; 0.1% ethanol, 5 μM acetaldehyde, 20 μM BSO
  8-OH-G in Con1 replicon (SgPC2) cells, daily treatment for 2 weeks: significant increases
[2]
  Nt. change per site: 4.25×10^−4 nt. change per site
  Fold increase (Amino acid change per site): did not increase
[3]
  increase in mutation frequency vs control: not statistically significant

## [Cl][Ni][Cl] [NiCl2]
[1]; 48 hrs, 0.5% (v/v) ethanol, 20 μM BSO, 250 μM NiCl2 daily
  fold increase in 8-OHG content over the control: 55.4±3.1 fold

## CCOC(=O)CNC(=O)[C@H](CS)NC(=O)CC[C@H](N)C(=O)O [GSH ester, glutathione ethyl ester]
[1]
  level of 8-OHG in ethanol and BSO-treated replicon cells with inhibitor: reduce; also recorded: effectively decreased
[2]
  dn/ds ratio in the ethanol group with co-treatment: 0.43
  amino acid substitution rate in the BSO group with co-treatment: not significantly above the control
  amino acid substitution rate in the ethanol group with co-treatment: not significantly above the control
  nt. substitution rates of ethanol and BSO groups with co-treatment: not significantly above the control
  percentage of sites undergoing positive selection with co-treatment: decreased
  dn/ds ratio of the control group with co-treatment: 0.24
  dn/ds ratio in the BSO group with co-treatment: 0.21

## OO [H2O2, hydrogen peroxide]
[2]
  Nt. change per site: 5.28×10^−4 nt. change per site
  Fold increase (Amino acid change per site): about 10 fold
[3]
  increase in mutation frequency vs control: not statistically significant

## c1ccc(-c2ccccn2)nc1 [Dipyridyl, α,α′-Dipyridyl]
[1]
  level of 8-OHG in ethanol and BSO-treated replicon cells with inhibitor: significantly decreased
[2]
  dn/ds ratio in the ethanol group with co-treatment: 0.46
  amino acid substitution rate in the BSO group with co-treatment: effectively abolished
  amino acid substitution rate in the ethanol group with co-treatment: significantly attenuated
  nt. substitution rates of ethanol and BSO groups with co-treatment: no longer any significant increase over the control
  percentage of sites undergoing positive selection with co-treatment: decreased
  dn/ds ratio of the control group with co-treatment: did not affect
  dn/ds ratio in the BSO group with co-treatment: 0.46
